Test results: US12678454B2, “Bicarbonate as a potentiator for antimicrobial agents” (priority 2017, dated 2026)
Bridge positions count the residues as written; N and C are the ends. Square brackets hold non-standard residues; d marks the D form. Peptide text beside a SMILES is read from it. * marks the point of attachment. Ileψ(thiazoline)Cys = CC[C@H](C)[C@H](N)C1=N[C@H](C(=O)*)CS1; dOrn = NCCC[C@@H](N)C(=O)O

What was measured:
E. coli (K-12 BW25113) = type: cell-based, Escherichia coli; set-up: MIC, E. coli, MHB− / MIC, E. coli, MHB+: unit not given here
Protocol: (§1) In the following experiments, bacterial cells were cultured in 96-well microtiter plates in cation-adjusted Mueller-Hinton Broth (MHB) for 18 h at 37° C. The main strains used in this study were E. coli (K-12 BW25113) (placed in stationary incubator) and S. aureus (Strain Newman) (incubated at 250 r.p.m). Knockout strains (ΔtolcC and ΔychM) were used from the Keio knockout collection (Baba, T. et al. Construction of Escherichia coli K-12 in-frame, single-gene knockout mutants: the Keio collection. Mol Syst Biol 2, 2006 0008, doi:10.1038/msb4100050 (2006)). For minimum concentration for inhibition (MIC) determination and checkerboard analyses, Clinical & Laboratory Standards Institute (CLSI) protocol was used. […] DiSC3 loading of S. aureus cells was performed as previously described (Farha, M. A., Verschoor, C. P., Bowdish, D. & Brown, E. D. Collapsing the proton motive force to identify synergistic combinations against Staphylococcus aureus. Chemistry & biology 20, 1168-1178, doi:10.1016/j.chembiol.2013.07.006 (2013)). CCCP concentration of 20 μM was used. pH adjustments were made by addition of HCl or NaOH. INT assay and ATP bioluminescence assays were performed as previously described (Farha, M. A., Verschoor, C. P., Bowdish, D. & Brown, E. D. Collapsing the proton motive force to identify synergistic combinations against Staphylococcus aureus. Chemistry & biology 20, 1168-1178, doi:10.1016/j.chembiol.2013.07.006 (2013)). For chemical-genomic studies, the Keio library was grown overnight in cation-adjusted MHB broth, in 384-well plates. From these, treatment plates (25 mM sodium bicarbonate, or a sterile water control) were inoculated and grown for 15 hours at 37° C., in a stationary incubator. Data was normalized according to Mangat et al (Mangat, C. S., Bharat, A., Gehrke, S. S. & Brown, E. D. Rank ordering plate data facilitates data visualization and normalization in high-throughput screening. J Biomol Screen 19, 1314-1320, doi:10.1177/1087057114534298 (2014)), with gene products and GO terms mined from EcoCyc. The GFP promoter library (Keseler, I. M. et al. EcoCyc: fusing model organism databases with systems biology. Nucleic Acids Res 41, D605-612, doi:10.1093/nar/gks1027 (2013)) was grown for 18 hours at ambient temperature with the same inoculation strategy as with the Keio collection. The analysis pipeline of Zaslaver et al (Zaslaver, A. et al. A comprehensive library of fluorescent transcriptional reporters for Escherichia coli. Nat Methods 3, 623-628, doi:10.1038/nmeth895 (2006)) was used to generate maps of promoter activity, from which lists of promoters with increased or decreased activity were compiled.

[1] = tested on: S. aureus (Strain Newman); assay: MIC determination (CLSI protocol) in MHB; type: cell-based, Staphylococcus aureus; details: for MIC, S. aureus, MHB−: MHB without sodium bicarbonate
Protocol: as §1

SMILES | Fold, E. coli (E. coli (K-12 BW25113)) | MIC, E. coli, MHB+ (E. coli (K-12 BW25113)) | Fold, S. aureus [1] | MIC, S. aureus, MHB− [1]
CC1(C)S[C@@H]2[C@H](NC(=O)[C@H](N)c3ccc(O)cc3)C(=O)N2[C@H]1C(=O)O [Amoxicillin] | −2 fold | 16 | −4 fold | 0.25 µg/mL
CC1(C)S[C@@H]2[C@H](NC(=O)[C@H](N)c3ccccc3)C(=O)N2[C@H]1C(=O)O [Ampicillin] | −2 fold | 32 | −8 fold | 1 µg/mL
CN[C@@H]1[C@@H](O[C@H]2O[C@H](CO)[C@@H](N)[C@H](O)[C@H]2O)OC2C[C@@H](N)[C@@H](O[C@H]3[C@H](O)[C@@H](O)[C@H](N)C[C@@H]3N)OC2[C@@H]1O (some centres unmarked) [Apramycin] | 4 fold | 8 | 0.5 fold | 16 µg/mL
CC[C@H](C)[C@H](N)C1=N[C@H](C(=O)N[C@@H](CC(C)C)C(=O)N[C@H](CCC(=O)O)C(=O)N[C@H](C(=O)N[C@H]2CCCCNC(=O)[C@H](CC(N)=O)NC(=O)[C@@H](CC(=O)O)NC(=O)[C@H](Cc3cnc[nH]3)NC(=O)[C@@H](Cc3ccccc3)NC(=O)[C@H]([C@@H](C)CC)NC(=O)[C@@H](CCCN)NC2=O)[C@@H](C)CC)CS1 [Bacitracin] ({Ileψ(thiazoline)Cys}-L[dE]IK[dOrn]I[dF]H[dD]N; lactam 4-C) | 1 fold | >256 | −2 fold | 32 µg/mL
N[C@@H]1CCCCN(c2c(F)cc3c(=O)c(C(=O)O)cn(C4CC4)c3c2Cl)C1 [Besifloxacin] | 8 fold | 0.0313 | −2 fold | 0.125 µg/mL
CCN1CCN(C(=O)N[C@@H](C(=O)N[C@@H]2C(=O)N3C(C(=O)O)=C(CSc4nnnn4C)CS[C@H]23)c2ccc(O)cc2)C(=O)C1=O [Cefoperazone] | 1 fold | 0.125 | −16 fold | 0.25 µg/mL
CO/N=C(\C(=O)N[C@@H]1C(=O)N2C(C(=O)O)=C(CSc3nc(=O)c(=O)[nH]n3C)CS[C@H]12)c1csc(N)n1 [Ceftriaxone] | 1 fold | 0.625 | −4 fold | 4 µg/mL
O=C(N[C@H](CO)[C@H](O)c1ccc([N+](=O)[O-])cc1)C(Cl)Cl [Chloramphenicol] | 1 fold | 8 | 1 fold | 8 µg/mL
Cc1onc(-c2ccccc2Cl)c1C(=O)N[C@@H]1C(=O)N2[C@@H]1SC(C)(C)[C@@H]2C(=O)O [Cloxacillin] | 1 fold | 256 | −16 fold | 0.031 µg/mL
CC[C@H]1OC(=O)[C@H](C)[C@@H](O[C@H]2C[C@@](C)(OC)[C@@H](O)[C@H](C)O2)[C@H](C)[C@@H](O[C@@H]2O[C@H](C)C[C@H](N(C)C)[C@H]2O)[C@](C)(O)C[C@@H](C)[C@@H]2N[C@@H](COCCOC)O[C@H]([C@H]2C)[C@]1(C)O [Dirithromycin] | 32 fold | 4 | 8 fold | 4 µg/mL
C[C@H]1c2cccc(O)c2C(=O)C2=C(O)[C@]3(O)C(=O)C(C(N)=O)=C(O)[C@@H](N(C)C)[C@@H]3[C@@H](O)[C@@H]21 [Doxycycline] | −4 fold | 4 | −16 fold | 0.125 µg/mL
CCn1cc(C(=O)O)c(=O)c2cc(F)c(N3CCNCC3)nc21 [Enoxacin] | 2 fold | 0.125 | −2 fold | 1 µg/mL
CC[C@H]1OC(=O)[C@H](C)[C@@H](O[C@H]2C[C@@](C)(OC)[C@@H](O)[C@H](C)O2)[C@H](C)[C@@H](O[C@@H]2O[C@H](C)C[C@H](N(C)C)[C@H]2O)[C@](C)(O)C[C@@H](C)C(=O)[C@H](C)[C@@H](O)[C@]1(C)O [Erythromycin] | – | 32 | – | 32 µg/mL
C[C@@H]1O[C@@H]1P(=O)(O)O [Fosfomycin] | −4 fold | 16 | −4 fold | 16 µg/mL
O=CN(O)CCCP(=O)(O)O [Fosmidomycin] | −2 fold | 32 | 1 fold | > 64 µg/mL
NC[C@H]1O[C@H](O[C@H]2[C@H](O)[C@@H](O[C@H]3O[C@H](CO)[C@@H](O)[C@H](N)[C@H]3O)[C@H](N)C[C@@H]2N)[C@H](O)[C@@H](O)[C@@H]1O [Kanamycin] | 4 fold | 1 | 2 fold | 8 µg/mL
C[C@H]1COc2c(N3CCN(C)CC3)c(F)cc3c(=O)c(C(=O)O)cn1c23 [Levofloxacin] | 1 fold | 0.0313 | −2 fold | 0.5 µg/mL
CC(=O)NC[C@H]1CN(c2ccc(N3CCOCC3)c(F)c2)C(=O)O1 [Linezolid] | 1 fold | 256 | 1 fold | 0.625 µg/mL
COc1c(N2C[C@@H]3CCCN[C@@H]3C2)c(F)cc2c(=O)c(C(=O)O)cn(C3CC3)c12 [Moxifloxacin] | – | 0.0156 | – | 0.125 µg/mL
CCn1cc(C(=O)O)c(=O)c2ccc(C)nc21 [Nalidixic acid] | −4 fold | 8 | −4 fold | > 8 µg/mL
CCn1cc(C(=O)O)c(=O)c2cc(F)c(N3CCNCC3)cc21 [Norfloxacin] | 2 fold | 0.0625 | −2 fold | 0.5 µg/mL
CO[C@@H]1[C@@H](OC(N)=O)[C@@H](O)[C@H](Oc2ccc3c(O)c(NC(=O)c4ccc(O)c(CC=C(C)C)c4)c(=O)oc3c2C)OC1(C)C [Novobiocin] | −8 fold | >256 | −16 fold | 0.031 µg/mL
Cc1onc(-c2ccccc2)c1C(=O)N[C@@H]1C(=O)N2[C@@H]1SC(C)(C)[C@@H]2C(=O)O [Oxacillin] | −2 fold | >256 | −16 fold | 0.0625 µg/mL
NC[C@@H]1O[C@H](O[C@H]2[C@@H](O)[C@H](O[C@@H]3[C@@H](O)[C@H](N)C[C@H](N)[C@H]3O[C@H]3O[C@H](CO)[C@@H](O)[C@H](O)[C@H]3N)O[C@@H]2CO)[C@H](N)[C@@H](O)[C@@H]1O [Paromomycin] | 2 fold | 1 | 1 fold | 2 µg/mL
CCN1CCN(C(=O)N[C@@H](C(=O)N[C@@H]2C(=O)N3[C@@H]2SC(C)(C)[C@@H]3C(=O)O)c2ccccc2)C(=O)C1=O [Piperacillin] | 2 fold | 1 | −4 fold | 0.25 µg/mL
CO[C@H]1/C=C/O[C@@]2(C)Oc3c(C)c(O)c4c(O)c(c(/C=N/N5CCN(C)CC5)c(O)c4c3C2=O)NC(=O)/C(C)=C\C=C\[C@H](C)[C@H](O)[C@@H](C)[C@@H](O)[C@@H](C)[C@H](OC(C)=O)[C@@H]1C [Rifampicin] | −2 fold | 64 | −4 fold | 0.0078 µg/mL
CN[C@@H]1[C@H](O)[C@H](NC)[C@H]2O[C@@]3(O)C(=O)C[C@@H](C)O[C@H]3O[C@@H]2[C@H]1O [Spectinomycin] | 4 fold | 4 | 8 fold | 64 µg/mL
